# Measured values as given in US20240100050A1, “MDM2 INHIBITORS AND USES THEREOF” (PMV Pharmaceuticals, Inc., priority 2022, published 2024).
# What was measured:
# [1] = % body weight change in the SJSA1 tumor dosing regimen study; assay type: in vivo; conditions: SJSA1 tumors
# Procedure: A study was conducted to compare differences between dosing regimens of navtemadlin administered to SJSA1 tumors. S.ISa-1 is a human […] cell line. Navtemadlin is an MDM2 inhibitor compound of the disclosure. Navtemadlin was administered intratumorally as 20 μL of 100 mg/mL navtemadlin Q3D×9, 20 μL of 100 mg/mL navtemadlin Q7D×5, 20 μL of 100 mg/mL navtemadlin Q14D×3, and 20 μL of 25 mg/mL navtemadlin QD×31.
# (§1) FIG. 2 panels A and B show the effects of intratumoral dosing regimens of navtemadlin in SJSA1 tumors, such as on tumor volume (mm 3) and % body weight change.
# SJSA1 tumors = test: Intratumoral dosing regimens of navtemadlin in SJSA1 tumors: tumor volume / % tumor inhibition; assay type: in vivo, human; conditions: for % TGI Day 24: compared to the vehicle
# Procedure: A study was conducted to compare differences between dosing regimens of navtemadlin administered to SJSA1 tumors. S.ISa-1 is a human […] cell line. Navtemadlin is an MDM2 inhibitor compound of the disclosure. […]
# as §1
# [2] = intratumorally 20 μL of 25 mg/mL QD×31
# [3] = intratumorally 20 μL of 100 mg/mL Q3D×9
# [4] = intratumorally 20 μL of 100 mg/mL Q7D×5
# [5] = intratumorally 20 μL of 100 mg/mL Q14D×3
smiles,measurement,setting,value
CC(C)[C@@H](CS(=O)(=O)C(C)C)N1C(=O)[C@@](C)(CC(=O)O)C[C@H](c2cccc(Cl)c2)[C@H]1c1ccc(Cl)cc1 [navtemadlin],% body weight change,[1]; [2],not significantly affecting % body weight change
same,% body weight change,[1]; [3],not significantly affecting % body weight change
same,% body weight change,[1]; [4],not significantly affecting % body weight change
same,% body weight change,[1]; [5],not significantly affecting % body weight change
same,% TGI Day 24,SJSA1 tumors; Q3Dx21 IT,94%
same,% TGI Day 24,SJSA1 tumors; Q7Dx21 IT,94%
same,% TGI Day 24,SJSA1 tumors; Q14Dx21 IT,94%
same,% TGI Day 24,SJSA1 tumors; QDx21 PO,94%
same,tumor volume,SJSA1 tumors; [2],significant tumor volume reduction
same,tumor volume,SJSA1 tumors; [3],significant tumor volume reduction
same,tumor volume,SJSA1 tumors; [4],significant tumor volume reduction
same,tumor volume,SJSA1 tumors; [5],significant tumor volume reduction
